Where “and” joins values, the source holds several entries; their conditions need not be identical. Equal values may be shown once.
Legend:
[1] = for vapor or sublimation pressure: Transpiration method
[2] = Molar enthalpy of transition or fusion; conditions: Crystal; DSC

CCn1cnc2ccccc21 [1-ethyl-1H-benzimidazole]
[1], Liquid
Conditions	vapor or sublimation pressure [kPa]
328.8 K	0.00273
331.8 K	0.00334
334.3 K	0.0041
336.7 K	0.00481
339.2 K	0.00591
341.7 K	0.00714
343.7 K	0.00826
346.7 K	0.01029
349.1 K	0.01206
351.7 K	0.01365
353.9 K	0.01678
356.7 K	0.01954
358.9 K	0.02439
361.2 K	0.02801
363.9 K	0.03343
366.6 K	0.03948
368.9 K	0.04573
372.1 K	0.05679
375.1 K	0.06706

Cn1cnc2ccccc21 [1-methylbenzimidazole]
Conditions	Molar enthalpy of transition or fusion [kcal/mol]
[2]	3.23

[1]
Conditions	Normal melting temperature [°C]	vapor or sublimation pressure [kPa]
300.7 K, Crystal	–	0.0002
303.2 K, Crystal	–	0.00026
305.6 K, Crystal	–	0.00034
308.1 K, Crystal	–	0.00046
311 K, Crystal	–	0.00061
313.7 K, Crystal	–	0.00082
314.2 K, Crystal	–	0.00087
314.2 K, Liquid	–	0.00115
316.6 K, Liquid	–	0.00139
316.7 K, Crystal	–	0.00112
319 K, Liquid	–	0.00172
319.6 K, Crystal	–	0.00154
321.5 K, Liquid	–	0.00209
322.5 K, Crystal	–	0.00213
324.5 K, Crystal	–	0.00249
324.5 K, Liquid	–	0.00278
325.5 K, Crystal	–	0.0027
326.9 K, Crystal	–	0.00316
326.9 K, Liquid	–	0.00332
329.5 K, Liquid	–	0.00402
331.5 K, Liquid	–	0.0046
334.5 K, Liquid	–	0.00598
335.9 K, Liquid	–	0.00673
336.9 K, Liquid	–	0.00709
337.5 K, Liquid	–	0.00742
339.6 K, Liquid	–	0.00868
341.6 K, Liquid	–	0.01014
344.4 K, Liquid	–	0.01267
347.2 K, Liquid	–	0.0155
349.4 K, Liquid	–	0.01858
351.8 K, Liquid	–	0.02168
354.1 K, Liquid	–	0.02462
354.4 K, Liquid	–	0.0258
356.5 K, Liquid	–	0.029
358.9 K, Liquid	–	0.03371
361.3 K, Liquid	–	0.0389
364 K, Liquid	–	0.04752
366.8 K, Liquid	–	0.0558
368.1 K, Liquid	–	0.06162
369.4 K, Liquid	–	0.06627
372.6 K, Liquid	–	0.07877
374.5 K, Liquid	–	0.08885
376 K, Liquid	–	0.09738
Crystal, DTA	60.1	–

CCCCCn1cnc2ccccc21 [1-pentyl-1H-benzimidazole]
[1], Liquid
Conditions	vapor or sublimation pressure
324.7 K	0.00028 kPa
329.1 K	0.00041 kPa
332 K	0.00054 kPa
335.1 K	0.00073 kPa
338.3 K	0.0009 kPa
341.2 K	0.00118 kPa
342.2 K	0.00124 kPa
344 K	0.00158 kPa
347.3 K	0.00203 kPa
350.1 K	0.00245 kPa
350.3 K	0.00238 kPa
353.2 K	0.00303 kPa
353.3 K	0.00329 kPa
356.2 K	0.00402 kPa
356.6 K	0.00437 kPa
359.4 K	0.00534 kPa
361.7 K	0.00609 kPa and 0.0063 kPa
364.3 K	0.00768 kPa and 0.0074 kPa
366.7 K	0.00884 kPa
369.7 K	0.0109 kPa
372.8 K	0.0129 kPa
375.8 K	0.01595 kPa

CCCn1cnc2ccccc21 [1-propyl-1H-benzimidazole]
[1], Liquid
Conditions	vapor or sublimation pressure [kPa]
326.7 K	0.00166
329.1 K	0.00202
331.7 K	0.00262
333.9 K	0.00298
334.3 K	0.00312
336.6 K	0.00377
339.2 K	0.0047
341.4 K	0.00546
344.2 K	0.00671
346.9 K	0.00797
349.3 K	0.00969
351.8 K	0.01262
354.3 K	0.01444
356.8 K	0.01719
359.3 K	0.01949
361.8 K	0.02422
364.3 K	0.02965
366.6 K	0.03507
369.3 K	0.0417
372.4 K	0.05004
375.9 K	0.06251

— the NIST ThermoML archive (doi:10.1021/je300312c)
